# Columns and labels:
# proNGF = test: NGF/proNGF expression in bladder after SCI (RT-PCR, Western blot); format: in vivo, Sprague-Dawley rats; details: bladder tissue after spinal cord injury
# Protocol: In order to determine whether YJ102 affected the production of proNGF as a ligand of p75, the expression of proNGF in the bladder was confirmed by RT-PCR, Western blot analysis, and immunofluorescence staining. In addition, for further verification, a macrophage cell line Raw 264.7 (Korea Cell Line Bank, Seoul, Korea) was stimulated with 1 µg/ml of LPS, and the effect of YJ102 on the production of proNGF was investigated. At this time, YJ102 was dissolved in DMSO and treated 30 minutes before LPS treatment.
# mTOR pathway = test: Signaling pathway analysis in SNI model (Western blot): mTOR; format: in vivo, Sprague-Dawley rats; details: 4 weeks after nerve injury
# Protocol: To determine through which signaling pathway YJ102 inhibited a neuroinflammatory response, there was analyzed increased expression and activation of histone demethylase JMJD3 and expression changes of factors associated with JAK/STAT3 pathway, mTOR pathway, and TRPM7-mediated pathway, which were known as important regulatory mechanisms and epigenetic regulators mediating the neuroinflammatory response, in the tissues of the SNI animal model 4 weeks after nerve injury.
# [1] = Observation of sedation as a side effect at high doses; format: in vivo, rats; details: 100 mg/kg
# urothelial cells = test: Urothelial cell apoptosis in bladder after SCI (TUNEL, cleaved caspase-3, UPIII Western blot); format: in vivo, Sprague-Dawley rats; details: day 3 after spinal cord injury
# From the text: The effect of YJ102 on urothelial cell apoptosis in bladder tissue after spinal cord injury was confirmed by TUNEL staining, and the protein levels of cleaved caspase-3 indicating caspase-3 activation, and UPIII as a urothelial marker were confirmed by Western blot analysis using p75 (Promega), cleaved caspase-3 (Cell signaling technology), and UPIII (Abcam) as primary antibodies. In addition, in order to confirm whether the mechanism of apoptosis was caused by a p75 neurotrophin receptor, which was involved in urothelial apoptosis, the expression level of p75 was confirmed by RT-PCR, Western blot analysis, and immunofluorescence staining. For RT-PCR analysis, the obtained bladder tissue sections were frozen in liquid nitrogen, and ground in a mortar and pestle to be completely lysed, and then RNA was isolated using a TRIZOL Reagent (Invitrogen) according to a manual, and 20 µl of the total mixture was prepared by using 1 µg of total RNA, and cDNA was synthesized using MMLV reverse transcriptase (Invitrogen).
# [2] = tested on: IMQ psoriasis animal model; test: Spleen hypertrophy in IMQ psoriasis animal model; format: in vivo, C57BL/6 mouse; details: Day 6, vs Vehicle group
# Protocol: (§1) Psoriasis caused by excessive production of skin cells was a chronic skin disease associated with various factors, including autoimmune diseases, and its symptoms included red and thickened skin and abnormally occurring scaling. […] Specifically, the back region of a C57BL/6 mouse (male, 18 to 20 g, 8 weeks) (Daehan Biolink, Eumseong, Korea) was shaved to remove hair, and then applied with IMQ cream (83 mg/day) (5%) for consecutive 5 days from Day 0 to Day 4 to induce psoriasis-like skin inflammation, and a normal control mouse (Sham) was applied with Vaseline cream (FIG. 16A).
# The spleen hypertrophy occurred in mice induced with psoriasis, the longitudinal diameter of the spleen in psoriasis patients was increased compared to that of non-psoriasis patients, and a correlation between the disease duration and the spleen diameter was reported. Therefore, on Day 6, the spleen of the mouse in each group was extracted and weighed to determine the degree of spleen hypertrophy.
# inflammatory factors = test: Inflammatory cytokine and chemokine expression in bladder after SCI (RT-PCR, Western blot); format: in vivo, Sprague-Dawley rats; details: bladder tissue after spinal cord injury
# From the text: To confirm the effect of YJ102 on the expression of inflammatory factors in the bladder after spinal cord injury, the expression of inflammatory cytokines and chemokines, COX-2, iNOS, IL-6, IL-1β, MIP-1α, MIP-1β, MIP-2α, and Gro-α in bladder tissue was confirmed by RT-PCR analysis and Western blot analysis using the primers in Table 2 above. In addition, even in the Raw 264.7 cell line, the expression was verified by RT-PCR analysis.
# [3] = tested on: IMQ psoriasis animal model; test: PASI scores (erythema, scaling) in IMQ psoriasis animal model; format: in vivo, C57BL/6 mouse; details: 5 mg/kg intraperitoneally on Day 2, Day 3, Day 4, vs Vehicle group
# Protocol: as §1
# In order to confirm the effect of YJ102 (Chemical Formula 1), a compound of the present disclosure, on psoriasis, YJ102 dissolved in DMSO, methyl pyrrolidinone, and water (1 : 1.5 : 1) was administered intraperitoneally (5 mg/kg) for a total of 3 days on Day 2, Day 3, and Day 4, and the Vehicle group was administered in the same amount of a solution of DMSO, methyl pyrrolidinone, and water (1 : 1.5 : 1) (FIG. 16A). To assess daily skin changes, PASI scores were used for erythema and scaling. The PASI score was evaluated as a severity scale of 0 to 4, in which 0 meant none, 1 meant mild, 2 meant moderate, 3 meant severe, and 4 meant very severe. (PASI Reference: Yashpal Manchanda, Abhishek De, Sudip Das, and Disha Chakraborty. Disease Assessment in Psoriasis. Indian J Dermatol. 2023 May-Jun; 68 (3): 278-281.)
# bladder wall = test: Bladder hypertrophy (H&E) and collagen content in bladder muscle (Masson's trichrome) after spinal cord injury; format: in vivo, Sprague-Dawley rats
# From the text: As one indicator of bladder dysfunction, bladder hypertrophy, which was a thicker bladder wall, and changes in collagen content in the bladder muscle were identified. Specifically, a spinal cord injury […] animal model was perfused through the left ventricle, and fixed with 4% paraformaldehyde, and the bladder was extracted, and then embedded in an optimal cutting temperature (OCT) compound, and the tissue was sectioned at a 10 µm thickness using a cryostat. In order to measure the bladder wall thickness, Hematoxylene & Eosin (Abcam) staining was performed according to a manufacturer's protocol, and in order to measure the collagen content in the muscle, Masson's trichrome (Sigma-Aldrich) staining was performed.
# [4] = day 1 after spinal cord injury, H&E
structure (smiles),measurement,setting,value
CCc1ccc(N(C(=O)COC)c2nc3cc(Cl)ccc3o2)cc1 [YJ102],NGF mRNA expression,proNGF; RT-PCR,significantly inhibited
same,proNGF production,proNGF; Western blot,significantly inhibited
same,activity of S6,mTOR pathway,inhibiting
same,activity of p70S6kinase,mTOR pathway,inhibiting
same,sedation as a side effect,[1],not observed
same,reduction of the level of UPIII (urothelial loss),urothelial cells; Western blot,inhibited
same,caspase-3 activation,urothelial cells; cleaved caspase-3 Western blot,inhibited
same,number of TUNEL-positive cells in the urothelium,urothelial cells; vs Vehicle group,significantly reduced
same,size of the spleen,[2],significantly reduced
same,weight of the spleen,[2],significantly reduced
same,"expression of COX-2, iNOS, IL-6, IL-1β, MIP-1α, MIP-1β, MIP-2α, and Gro-α",inflammatory factors,significantly reduced
same,degree of erythema (PASI score),[3],significantly lower
same,degree of scaling (PASI score),[3],significantly lower
same,collagen content in the muscle,"bladder wall; after spinal cord injury, Masson's trichrome",maintained at a level almost similar to that of the normal group
same,thickness of the lamina propria,bladder wall; [4],significantly reduced
same,thickness of the muscle layer,bladder wall; [4],significantly reduced
same,thickness of the urothelium layer,bladder wall; [4],significantly reduced
